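Tested at 5 concentrations; 48 h exposure; 96-well plates; endpoints linearly interpolated, else capped at highest concentration. GI50 marks 50% less growth. Definition used: TGI = concentration required for complete inhibition of growth.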
Tests used:
Assay in all cases: DTP human tumour cell line panel, 48 h
[1] = test system: BT-549 breast
[2] = test system: OVCAR-5 ovarian
[3] = test system: RPMI-8226 leukemia
[4] = test system: LOX IMVI melanoma
[5] = test system: SW-620 colon
[6] = test system: UACC-257 melanoma
[7] = test system: SN12C renal
[8] = test system: CCRF-CEM leukemia
[9] = test system: OVCAR-4 ovarian
[10] = test system: MCF7 breast

Compound | GI50 [1] [µM] | TGI [1] [µM] | GI50 [2] [µM] | TGI [2] [µM] | GI50 [3] [µM] | TGI [3] [µM] | GI50 [4] [µM] | TGI [4] [µM] | GI50 [5] [µM] | TGI [5] [µM] | GI50 [6] [µM] | TGI [6] [µM] | GI50 [7] [µM] | TGI [7] [µM] | GI50 [8] [µM] | TGI [8] [µM] | GI50 [9] [µM] | TGI [9] [µM] | GI50 [10] [µM] | TGI [10] [µM]
CCSc1nc(N)c2cnn(C)c2n1 | 42.9 | > 100 | 49.9 | > 100 | 37.5 | > 100 | 33 | > 100 | 34.2 | > 100 | 67.1 | > 100 | 48.9 | > 100 | 42.3 | > 100 | 81.2 | > 100 | 28 | > 100
CC1(C)CC2(C)OC2C2(C1)N=NC(=Nc1ccccc1)O2 (stereo not given) | 2.22 | 4.99 | 11.2 | 26.2 | 2.41 | 6.82 | 1.06 | 2.62 | 2.35 | 9.28 | 4.11 | 15.7 | 2.48 | 8.33 | 2.46 | 8.07 | 3.45 | 17.2 | 1.81 | 13.2
O=C(CN=Cc1cccs1)CSC(c1ccccc1)c1ccccc1 | 18.4 | 40 | 44.3 | > 100 | 12.1 | 28.7 | 25.8 | 82.2 | 29.8 | > 100 | 22.1 | 48 | 19.6 | 36.1 | 20.8 | > 100 | 26.5 | > 100 | 18.8 | 52.6
CCNC(=O)Oc1ccc(/C(=C(\C)c2ccc(Cl)cc2)c2ccc(OCCN3CCCCC3)cc2)cc1 | 4.27 | 16.6 | 11 | 23.8 | 2.31 | 5.27 | 1.93 | 3.94 | 2.2 | 4.97 | 2.38 | 5.12 | 5.95 | 19.2 | 3.26 | 11.8 | 2.99 | 12.9 | 0.484 | 8.06
COc1cc(C(=O)N/N=C/c2cccc([N+](=O)[O-])c2)cc(OC)c1OC | 4.95 | 86.6 | 39.7 | > 100 | 5.39 | > 100 | 4.69 | > 100 | 3.15 | > 100 | 5.11 | > 100 | 78.9 | > 100 | 4.52 | > 100 | 43.4 | > 100 | 4.49 | > 100
CCOC(=O)C1=C(c2ccccc2)N(Cc2ccccc2)C2(O)C=CC(=O)C3C(=O)N(c4ccccc4)C(=O)C132 (stereo not given) | 1.76 | 3.58 | 3.23 | 15.5 | 1.27 | 4.35 | 1.34 | 2.67 | 1.81 | 3.91 | 2.82 | 8.06 | 1.55 | 4.9 | 1.53 | 7.03 | 2.94 | 10.8 | 1.29 | 3.08
CCN(CC)CCOc1ccc(C2=C(c3ccccc3)CCc3cc(OC)ccc32)cc1 | 4.17 | 15.2 | 2.31 | 5.52 | 2.62 | 11.3 | 1.75 | 3.64 | 2.78 | 8.09 | 1.81 | 3.6 | 5.48 | 20 | 5.59 | > 49.3 | 3.54 | 17.2 | 0.547 | 2.62
C[C@]12CC[C@@H]3c4ccc(O)cc4CC[C@H]3[C@@H]1CC[C@@H]2NS(=O)(=O)c1ccc(-c2ccccc2)cc1 | 2.99 | 11.7 | 4.76 | 19.2 | 2.51 | 11.4 | 10.6 | 23.9 | 5.54 | > 100 | 4.26 | 32.6 | 2.75 | 10.3 | 3.34 | > 100 | 2.43 | 19 | 3.56 | 11.2
C=C(C)[C@@H]1CCC[C@]2(C(=O)O)CC[C@]3(C)[C@@H](CC[C@@H]4[C@@]5(C)C/C(=C/c6ccncc6)C(=O)C(C)(C)[C@@H]5CC[C@]43C)[C@@H]12 | 2.1 | 6.21 | 2.52 | 11.9 | 1.8 | 7.5 | 1.84 | 3.5 | 3.14 | 9.6 | 3 | 13.8 | 3.71 | > 100 | 3.16 | > 100 | 4.31 | 67.4 | 2.77 | 28.5
CC1SC2(CCCCC2)N(NC(=O)c2[nH]c3ccc(F)cc3c2-c2ccccc2)C1=O (stereo not given) | > 100 | > 100 | > 100 | > 100 | 41.2 | > 100 | > 100 | > 100 | > 100 | > 100 | 90.9 | > 100 | 37.1 | > 100 | > 100 | > 100 | 41.6 | > 100 | > 100 | > 100
CC(C)n1nc(C#Cc2cccc(NC(=O)c3cccc(C(F)(F)F)c3)c2)c2c(N)ncnc21 | 2.46 | 47.7 | 1.36 | 27.7 | 2.26 | 16.7 | 0.204 | 1.04 | 2.2 | > 100 | 0.538 | 5.68 | 1.28 | 8.17 | 2.73 | > 100 | 3.54 | 34.4 | 7.5 | > 100
